Several values for one entry are separate records, joined by “and”; a condition that tells them apart may be missing. Equal values may be shown once. Read-outs that look alike come from different tables or passages of the source. Peptide text beside a SMILES is read from it. * marks the point of attachment. NH(4-amidinobenzyl) = N=C(N)c1ccc(CN*)cc1; X2 = N=C(N)NC/C=C/CN*
How the values were obtained:
DU145 cells [1] = test: Stability following incubation with DU145 cells; assay type: in vitro ADME, human
Procedure: (§1) Multiple multi-Leu variants described in Table 1 were tested for their stability following incubation with DU145 cells, wherein their cellular stability and plasmatic half-life was measured.
(§2) Consequently, the multi-Leu peptide was further modified by the addition of amino acid analogues and/or with pseudo peptide bounds which increase the protection of the modified peptides from peptidase and protease degradation. Gains in stability were also measured in vitro in tumoral prostatic human cells (DU145). Increase in stability of the variants was also measured in vivo (FIG. 4).

Fig. 4 = test: Fig. 4
Description: Table printed on a drawing sheet, Fig. 4
The patent's description of the figure: FIG. 4 illustrates plasmatic half-life curves measured for multi-Leu variants tested.
First reader's note: The table also serves as legend for the numbered curves of the adjacent plot; the unit (h) and ± errors stand in the cells, with decimal commas as printed.

PACE4 = target: T1, PACE4 (Homo sapiens, UniProt P29122); test: Inhibition constant (Ki) for PACE4; assay type: biochemical
T1 sequence (P29122 150-969): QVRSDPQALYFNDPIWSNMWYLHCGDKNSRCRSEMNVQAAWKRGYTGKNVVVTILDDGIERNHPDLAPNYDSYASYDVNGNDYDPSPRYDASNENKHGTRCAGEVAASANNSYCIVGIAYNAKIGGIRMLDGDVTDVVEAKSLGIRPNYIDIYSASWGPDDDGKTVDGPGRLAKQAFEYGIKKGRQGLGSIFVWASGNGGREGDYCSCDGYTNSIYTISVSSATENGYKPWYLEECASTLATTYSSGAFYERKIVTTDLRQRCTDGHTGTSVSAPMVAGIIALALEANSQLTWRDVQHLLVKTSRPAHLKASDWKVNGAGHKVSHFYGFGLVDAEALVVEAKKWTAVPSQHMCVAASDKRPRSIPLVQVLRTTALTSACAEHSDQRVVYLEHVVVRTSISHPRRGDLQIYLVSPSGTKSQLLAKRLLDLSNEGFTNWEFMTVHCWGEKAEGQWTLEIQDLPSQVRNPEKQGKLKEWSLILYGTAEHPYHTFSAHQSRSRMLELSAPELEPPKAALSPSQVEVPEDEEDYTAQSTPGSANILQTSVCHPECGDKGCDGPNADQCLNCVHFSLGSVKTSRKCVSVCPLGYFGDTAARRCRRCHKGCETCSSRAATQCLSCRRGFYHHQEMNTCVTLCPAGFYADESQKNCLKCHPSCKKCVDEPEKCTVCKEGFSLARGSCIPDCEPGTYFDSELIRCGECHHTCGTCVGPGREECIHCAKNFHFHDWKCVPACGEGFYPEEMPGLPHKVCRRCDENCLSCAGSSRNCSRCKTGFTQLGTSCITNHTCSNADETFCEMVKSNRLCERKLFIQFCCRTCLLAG

furin = furin (Homo sapiens, UniProt P09958); test: Inhibition constant (Ki) for furin; assay type: biochemical
[2] = Stability following incubation with DU145 cells; assay type: in vitro ADME, human; conditions: human, DU145 cells, Table 1, read-out: Stability (% remaining after 48 h)
Procedure: as §1, §2

[3] = Plasmatic half-life / degradation by plasmatic protease; assay type: in vitro ADME; conditions: for half-life: plasma
Procedure: as §1
Stabilisation strategy for multi-Leu variants was also assessed in presence of plasmatic protease. 8 variants protected at their N-terminal leucines were tested in order to establish their level of degradation since it is expected that N-terminal degradation will occur in absence of any modifications other than acetylation. Variants tested with azaβ3-leucine at each individual position and “click” bonds between the different leucines of the N-terminal part of the variants were protected against degradation (see FIG. 3 for modifications).

LNCaP cells [4] = test: Cell cycle analysis (DNA content, flow cytometry) of LNCaP cells; assay type: cell-based; conditions: for Cell cycle effect (in words): 100 μM or 200 μM, FIG. 11; for Cells in G0/G1 phase / Cells in G2/M phase / Cells in S phase / Cells in Sub-G1 (hypodiploid DNA content, apoptotic): 96 hours
Procedure: In order to obtain further support for the antiproliferation effects observed, a DNA content analysis was performed on LNCaP treated cells with 100 μM or 200 μM of ML-peptide and the modified analog […] (FIG. 11). […] Following a 200 μM treatment with the Ac-[D-Leu]LLLRVKR-NH2, a 10% increase in the G0/G1 population was observed along with an increased in cells with hypodiploid DNA content (sub-G1) proportions, which represent apoptotic cells.
To perform cell cycle analysis on LNCaP, 4×10^5 cells are seeded in 10 cm culture dish and grown for 24 hours without treatment. Cells are then treated with vehicle (0.1% DMSO) or with 100 μM or 200 μM of peptides Ac-LLLLRVKR-NH2 or Ac-[D-Leu]LLLRVKR-NH2. Treatments are carried out in complete medium (10% FBS) for a period of 96 hours and cell media is changed every 24 hours to offset peptide degradation. Cells are harvested using trypsin, washed once with PBS, resuspended in 0.5 mL PBS and fixed by drop wise addition of 1.5 mL of ice-cold ethanol. After a 30 minutes incubation at room temperature, cells are washed with PBS and DNA staining is performed in 20 mM HEPES pH 7.2, 0.16M NaCl, 1 mM EGTA buffer containing 10 μg/mL of RNAseA and 10 μg/mL of propidium iodine.
Flow cytometry is performed using a FACScan™ cytometer (Becton Dickinson, Mountain View, Calif.) equipped with a 15 mW argon ion laser tuned at 488 nm. A minimum of 10 000 gated events by sample are acquired. Forward and side scatter signals are used to establish the live gate to exclude debris and cell clumps and a second live gate is set using the FL3-A and FL3-W parameters of the doublet discrimination module (DDM), allowing single cell measurements. The percentages of cells in different phases of cell cycle are calculated by ModFit software (Verity Software House, Topsham, Me.).

DU145 cells [5] = conditions: MTT
LNCaP cells [6] = conditions: MTT
LNCaP tumors = test: Intratumoral treatment of LNCaP tumors in immunosuppressed mice; conditions: LNCaP tumors, FIG. 9
PC3 cells = test: MTT proliferation assay in PC3 cells; assay type: cell-based; conditions: FIG. 1B
[7] = read-out: IC50 (μM) DU145, Table 4, DU145 cells

furin, sequence (P09958 108-794): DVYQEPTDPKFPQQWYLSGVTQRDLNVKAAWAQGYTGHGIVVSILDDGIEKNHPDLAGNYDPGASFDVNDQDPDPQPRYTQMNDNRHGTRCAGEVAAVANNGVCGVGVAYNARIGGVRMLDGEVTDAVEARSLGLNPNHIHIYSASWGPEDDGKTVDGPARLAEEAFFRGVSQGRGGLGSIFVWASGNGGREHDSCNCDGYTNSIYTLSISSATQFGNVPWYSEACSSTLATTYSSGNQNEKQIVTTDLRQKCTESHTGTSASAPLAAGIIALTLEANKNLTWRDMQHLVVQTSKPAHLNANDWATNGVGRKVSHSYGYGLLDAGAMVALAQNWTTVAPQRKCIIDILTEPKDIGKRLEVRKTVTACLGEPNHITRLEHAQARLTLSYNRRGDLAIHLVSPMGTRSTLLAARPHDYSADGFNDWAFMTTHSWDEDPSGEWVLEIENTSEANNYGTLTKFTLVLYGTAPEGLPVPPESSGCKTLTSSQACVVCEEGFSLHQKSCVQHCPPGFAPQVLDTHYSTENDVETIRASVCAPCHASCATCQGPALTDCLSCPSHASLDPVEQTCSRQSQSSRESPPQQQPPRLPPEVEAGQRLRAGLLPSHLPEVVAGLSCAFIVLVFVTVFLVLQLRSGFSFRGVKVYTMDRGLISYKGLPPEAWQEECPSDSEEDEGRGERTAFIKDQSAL

Molecule | Stability (% remaining after 48 h) (DU145 cells [1]; Table 2) | Ki (PACE4; Ki for PACE4, Table 1) | Selectivity index PACE4/furin (PACE4; Table 3) | Ki (furin) [nM] | remaining at 48 h [2] [%] | half-life ([3]; Table 1) [h] | half-life ([3]; Table 2) [h] | Cell cycle effect (in words) (LNCaP cells [4]) | Cells in G0/G1 phase (LNCaP cells [4]; 100 μM) [%] | Cells in G2/M phase (LNCaP cells [4]; 100 μM) [%] | Cells in S phase (LNCaP cells [4]; 100 μM) [%] | Cells in Sub-G1 (hypodiploid DNA content, apoptotic) (LNCaP cells [4]; 100 μM) [%] | Cells in G0/G1 phase (LNCaP cells [4]; 200 μM) [%] | Cells in G2/M phase (LNCaP cells [4]; 200 μM) [%] | Cells in S phase (LNCaP cells [4]; 200 μM) [%] | Cells in Sub-G1 (hypodiploid DNA content, apoptotic) (LNCaP cells [4]; 200 μM) [%] | IC50 (DU145 cells [5]; [7]) [µM] | other results
CC(=O)N[C@@H](CC(C)C)C(=O)N[C@@H](CC(C)C)C(=O)N[C@@H](CC(C)C)C(=O)N[C@@H](CC(C)C)C(=O)N[C@@H](CCCN=C(N)N)C(=O)N[C@H](C(=O)N[C@@H](CCCCN)C(=O)NCc1ccc(C(=N)N)cc1)C(C)C [ML-[AMBA]^P1, Ac-LLLLRVK-[AMBA]] (Ac-LLLLRVK-{NH(4-amidinobenzyl)}) | ≃80% | – | – | – | – | – | – | – | – | – | – | – | – | – | – | – | – | Stability (% remaining after 48 h) (DU145 cells [1]; Table 1): ≃80%
Ac-LLLLRVKR-NH2 [6: ML] | – | – | – | – | – | – | – | – | – | – | – | – | – | – | – | – | – | plasmatic half-life (Fig. 4): 2,1±0,2h
CC(=O)N[C@H](CC(C)C)C(=O)N[C@@H](CC(C)C)C(=O)N[C@@H](CC(C)C)C(=O)N[C@@H](CC(C)C)C(=O)N[C@@H](CCCNC(=N)N)C(=O)N[C@H](C(=O)N[C@@H](CCCCN)C(=O)N[C@@H](CCCNC(=N)N)C(N)=O)C(C)C [[D-Leu]^P8-ML, Ac-[D-Leu]-LLLRVKR-NH2] | – | 52 nM and 33 nM | ≈20 | 516 | 48 | ~9 | 6.3 | dose-dependant G0/G1 accumulation and S phase decrease | 79.3 ± 1.0 | 8.9 ± 0.5 | 11.8 ± 0.5 | 0.4 ± 0.6 | 83.4 ± 0.0 | 8.3 ± 0.1 | 8.4 ± 0.1 | 11.8 ± 2.7 | 66 ± 26 | Ki (PACE4; Ki PACE4 (nM), Table 3): 3 nM; plasmatic half-life ([3]; Table 1): 6.3 h; Cells with hypodiploid DNA content (sub-G1) proportions (in words) (LNCaP cells [4]; 200 μM treatment): increased; Increase in the G0/G1 population (LNCaP cells [4]; 200 μM treatment): 10%; IC50 (LNCaP cells [6]; read-out: IC50 (μM) LNCaP, Table 4, LNCaP cells): 181 ± 59 µM; Plasmatic concentration of PSA (in words) (LNCaP tumors): decreased
CC(=O)N[C@@H](CC(C)C)C(=O)N[C@@H](CC(C)C)C(=O)N[C@@H](CC(C)C)C(=O)N[C@@H](CC(C)C)C(=O)N[C@@H](CCCNC(=N)N)C(=O)N[C@H](C(=O)N[C@@H](CCCCN)C(=O)NC/C=C/CNC(=N)N)C(C)C [ML-[ΔR-CO2]^P1, Ac-LLLLRVK-[ΔR-COO]] (Ac-LLLLRVK-X2) | 70% | – | 11.4 | – | 70 | – | – | – | – | – | – | – | – | – | – | – | – | Selectivity for PACE4 over furin (time more selective) (PACE4): 11.4; Ki (PACE4; Table 1, read-out: Ki for PACE4): 14 nM; Ki (furin; Table 3, read-out: Ki Furin): 160 nM
Ac-LLLLRVKR-NH2 [Multi-Leu (ML), Ac-LLLLRVKR-NH2, reference compound] | 56% | 38 nM | 19 | 722 | 56 | 2.1 ± 0.2 | 2.1 ± 0.2 | dose-dependant G0/G1 accumulation and S phase decrease | 79.7 ± 0.4 | 8.4 ± 0.6 | 11.9 ± 0.2 | 1.0 ± 0.0 | 81.5 ± 0.0 | 9.2 ± 0.1 | 9.3 ± 0.1 | 4.8 ± 1.7 | 187 ± 44 | Inhibition of PC3 cell proliferation (in words) (PC3 cells): very poor inhibition; IC50 (DU145 cells [5]; read-out: IC50 cellular proliferation DU145, FIG. 1B/1C): 103 ± 29 µM; IC50 (LNCaP cells [6]; read-out: IC50 cellular proliferation LNCaP, FIG. 1B/1D): 180 ± 57 µM
